{"source": "patent US9655877B2", "about": "“Therapeutic methods for treating inflammation and immune system disorders” (priority 2009, dated 2017)", "key": {"[1]": {"tested_on": "Neuro-2a cells", "test": "Neuro-2a cells treated with compound alone in the culture media", "type": "cell-based, murine", "settings": "compound alone in the culture media (data not shown)", "text": "Specifically, a significant reduction in cell death, to less than 15% and 25%, respectively, was observed."}, "[2]": {"tested_on": "TNF-α mRNA and iNOS expression in BV-2 cells", "test": "TNF-α mRNA and iNOS expression in LPS-treated BV-2 cells, RT-PCR", "type": "cell-based, murine", "settings": "compound 1 hour before LPS for 6 hours", "method": "Semi-quantitative PCR assays of targeted genes were performed in a 25 μl reaction mixture containing 1.5 mM MgCl2, 0.2 mM of each deoxynucleoside triphosphate, 0.25 μM of each primer, 2 units of Taq polymerase (GE Healthcare), and 1 μl of cDNA. PCR primer sets for TNF-α and glyceraldehyde-3-phosphate dehydrogenase (GAPDH) were as follows. TNF-α (upstream: 5′-GGCTCCAGGCGGTGCT TGTCC-3′ (SEQ ID NO:1); downstream: 5′-[…]-3′ (SEQ ID NO:2)), and GAPDH (upstream: 5′-[…]-3′ (SEQ ID NO:3); downstream: 5′-[…]-3′ (SEQ ID NO:4). The thermal cycling condition for PCR was 94° C. for 30 s, 60° C. for 30 s, and 72° C. for 1 min. The cycling reactions were repeated for 24 more cycles.\nThe levels of TNF-α mRNA and iNOS mRNA were determined by real-time RT-PCR (Roche 480II). 18S ribosomal RNA (18S) was used as an internal control. All of the real-time RT-PCR probes were obtained from the Universal Probe Library (Roche). All of the samples were performed in duplicate. […] The relative mRNA expression of the targeted genes was calculated by 2^−ΔΔCT and expressed as fold induction.\nTo study the role of senkyunolide A in suppressing TNF-α production, 10^5 cells/ml BV-2 cells are seeded in 24-well plates (0.5 ml in each well). […] Total RNA of the treated samples is isolated and subjected to semi-quantitative RT-PCR assays (FIG. 9A) and quantitative RT-PCR assays (FIGS. 9B and C) using specific […] TNF-α primers."}, "[3]": {"tested_on": "MAP kinases (p38, JNK, ERK 1/2)", "test": "Phosphorylation of MAPKs in LPS-stimulated BV-2 cells, Western blot", "type": "cell-based, murine", "settings": "50 μg/ml pretreatment 1 h, 100 ng/ml LPS 30 min", "method": "BV-2 cells (2×10^5 cells/ml) were pretreated with either 0.05% DMSO or 50 μg/ml senkyunolide A for 1 h, followed by treatment with 100 ng/ml LPS for another 30 min. (A) Cytoplasmic proteins were extracted and analyzed by Western Blot using antibodies specific for phospho-p38, phospho-JNK, phospho-ERK 1/2 and actin. (B) Nuclear proteins were extracted and analyzed by Western Blot against NF-kB p65 and lamin B antibodies. 10^5 cells/ml BV-2 cells were first pretreated with senkyunolide A for 1 h. After induction by 100 ng/ml LPS for 30 min, the culture medium was discarded. Cytoplasmic proteins and nuclear proteins were extracted separately by buffer A and buffer C as described in our previous report^28. The cell lysates were separated by 10% SDS-polyacrylamide gel electrophoresis and transferred to a nitrocellulose membrane (Schleicher & Schuell, Germany). The cell lysates were incubated with specific antibodies (phospho-MAP kinases, Actin, NF-kB p65 and Lamin B) overnight. After three washes, the membranes were incubated with the corresponding secondary antibodies. The bands were detected using the Enhanced Chemiluminescence System (GE Healthcare, Piscataway, N.J., USA) according to the manufacturer's instructions. […] Briefly, the effect of Sen A on mitogen-activated protein kinases (MAPKs) in the cell signaling cascade was investigated. […]"}, "[4]": {"tested_on": "TNF-α production in human blood macrophages", "test": "LPS-induced TNF-α production in human blood macrophages (PBMac), ELISA", "type": "cell-based", "settings": "25 or 50 μg/ml for 24 hours, then 1 ng/ml LPS for 24 hours", "method": "To measure the TNF-α level in cell culture supernatants, BV-2 cells were seeded at 1×10^5 cells/ml in the volume of 0.5 ml in 24-well culture plates. They were co-treated with or without 100 ng/ml LPS in the absence or presence of indicated concentrations of bioactive compounds of LCX for 18 h. In addition, PBMac cells were seeded at 1×10^6 cells/ml in the volume of 0.5 ml in 24-well plates. After incubation, the supernatants were collected and TNF-α levels were determined by ELISA according to the manufacturer's instructions (R&D Systems). […] To study the effect of Sen A and Z-Lig at various concentrations on TNF-α production, 1×10^6 cells/ml (FIG. 6) PBMac cells are seeded in 24-well plates (0.5 ml in each well). Cells are treated with 25 μg/ml or 50 μg/ml Sen A, Z-Lig, or DMSO for 24 hours prior to the addition of 1 ng/ml LPS, and further incubated for another 24 hours. The culture supernatants are collected and the level of secreted TNF-α is measured by ELISA according to the manufacturer's instructions (R&D Systems, Minneapolis, Minn.)."}, "[5]": {"tested_on": "TNF-α mRNA", "test": "TNF-α mRNA stability assay (actinomycin D) in BV-2 cells", "type": "cell-based, murine", "settings": "compound 1 hour, LPS 2 hours, then 1 μg/ml actinomycin", "method": "10^5 BV-2 cells were first stimulated by 100 ng/ml LPS. After 2 h of LPS treatment, transcription inhibitor actinomycin D (Act D) at a concentration of 1 ug/ml was added to stop the mRNA synthesis. Total RNA was harvested at indicated time points after actinomycin D treatment (post-Act D). The level of TNF-α mRNA was measured by real-time quantitative RT-PCR. In addition, the effect of senkyunolide A on TNF-α mRNA stability is evaluated. Specifically, 10^5 cells/ml BV-2 cells are seeded in 24-well plates (0.5 ml in each well). Cells are treated with Sen A at various concentrations for 1 hour prior to the addition of LPS for another 2 hours, and further incubated with 1 μg/ml actinomycin for various time periods. Total RNA of the treated samples is isolated and subjected to real-time RT-PCR."}}}
{"smiles": "CCCC[C@H]1OC(=O)C2=C1CCC=C2", "note": "[senkyunolide A]", "values": [{"measurement": "cell death with compound alone", "setting": "[1]", "result": "did not show cell death"}, {"measurement": "effect on TNF-α mRNA expression", "setting": "[2]", "result": "inhibits TNF-α mRNA"}, {"measurement": "effect on iNOS expression", "setting": "[2]", "result": "inhibits TNF-α mRNA and iNOS expression"}, {"measurement": "effect on levels of phosphorylation of MAPKs (p38, JNK, ERK 1/2)", "setting": "[3]", "result": "did not exert any effect"}, {"measurement": "effect on endotoxin-induced TNF-α production", "setting": "[4]", "result": "suppress endotoxin-induced TNF-α production in a dose-dependent manner"}, {"measurement": "effect on TNF-α mRNA stability", "setting": "[5]", "result": "destabilizes TNF-α mRNA"}, {"measurement": "reduction of TNF-α mRNA half life", "setting": "[5]", "result": 43, "unit": "%"}]}
